pIC50: −log10 of the molar value.
Assays:
Test in all cases: Cytotoxicity of compounds to tumor cell lines (MTS, 5 days)
Format in all cases: cell-based
[1] = tested on: A431(human epidermal carcinoma cells); settings: A-431, 120 h, A431, 5 days
Protocol: (§1) In the present invention, various human-derived tumor cell lines (BxPC-3 (human orthotopic pancreatic adenocarcinoma cell), SW620 (human colon cancer cell), H1975 (human lung adenocarcinoma cell), HCC827 (human lung adenocarcinoma cell), FaDu (human pharyngeal squamous cell carcinoma cell) and A431(human epidermal carcinoma cells)) were used as experimental models to evaluate the cytotoxicity of compound to tumor cell lines. A certain number of tumor cells were seeded into a 96-well plate. After the cells adhered to the wall, gradient dilutions of tested compounds were added to the test cells, followed by incubation at 37 °C and 5% CO2 for 5 days. Cell viability was measured using MTS, and the inhibitory effect of the control compounds and the tested compounds on the tumor cell lines was evaluated byIC50. The compound with a starting concentration of 4000 nM was diluted 7 folds, with a total of 8 concentration points. […] Table 5: In vitro pharmacodynamic activity of control compounds and tested compounds in human-derived tumor cell lines BxPC-3, SW620 and H1975: […]

[2] = tested on: BxPC-3 (human orthotopic pancreatic adenocarcinoma cell); settings: for pIC50: Homo sapiens, 120 h, BxPC-3, 5 days, MTS; for anti-tumor effects: in words, BxPC-3, SW620, H1975, HCC827, FaDu and A431 cell models
Protocol: as §1

[3] = tested on: FaDu (human pharyngeal squamous cell carcinoma cell); settings: 120 h
Protocol: as §1

[4] = tested on: H1975 (human lung adenocarcinoma cell); settings: NCI-H1975, 120 h, H1975, 5 days
Protocol: as §1

[5] = tested on: HCC827 (human lung adenocarcinoma cell); settings: 120 h, HCC827, 5 days
Protocol: as §1

[6] = tested on: SW620 (human colon cancer cell); settings: SW-620, 120 h, SW620, 5 days
Protocol: as §1

| SMILES | pIC50 [1] | pIC50 [2] | pIC50 [3] | pIC50 [4] | pIC50 [5] | pIC50 [6] | anti-tumor effects [2] |
| --- | --- | --- | --- | --- | --- | --- | --- |
| C=C1C[C@@H]2CC[C@@]34C[C@H]5O[C@H]6[C@@H](O3)[C@H]3O[C@H](CC[C@@H]3O[C@H]6[C@H]5O4)CC(=O)C[C@@H]3[C@@H](OC)[C@@H](C[C@H](O)CNC)O[C@H]3C[C@H]3O[C@@H](CC[C@@H]1O2)C[C@@H](C)C3=C [D-2] | 10.70 | 10.52 | 9.43 | 9.60 | 10.60 | 8.90 | – |
| C=C1C[C@@H]2CC[C@@]34C[C@H]5O[C@H]6[C@@H](O3)[C@H]3O[C@H](CC[C@@H]3O[C@H]6[C@H]5O4)CC(=O)C[C@@H]3[C@@H](OC)[C@@H](C[C@H](O)CN(C)C(=O)OCc4ccccc4)O[C@H]3C[C@H]3O[C@@H](CC[C@@H]1O2)C[C@@H](C)C3=C [D-8] | > 11.30 | > 11.30 | > 11.30 | > 11.30 | > 11.30 | > 11.30 | the best effects |
| C=C1C[C@@H]2CC[C@@]34C[C@H]5O[C@H]6[C@@H](O3)[C@H]3O[C@H](CC[C@@H]3O[C@H]6[C@H]5O4)CC(=O)C[C@@H]3[C@@H](OC)[C@@H](C[C@H](O)CN)O[C@H]3C[C@H]3O[C@@H](CC[C@@H]1O2)C[C@@H](C)C3=C [D-4(eribulin), eribulin] | 10.52 | 10.22 | 9.14 | 9.41 | 10.30 | 8.59 | – |
| C=C1C[C@@H]2CC[C@@]34C[C@H]5O[C@H]6[C@@H](O3)[C@H]3O[C@H](CC[C@@H]3O[C@H]6[C@H]5O4)CC(=O)C[C@@H]3[C@@H](OC)[C@@H](C[C@H](O)CN(C)C(=O)C(F)F)O[C@H]3C[C@H]3O[C@@H](CC[C@@H]1O2)C[C@@H](C)C3=C [D-15] | 10.70 | 10.52 | 9.48 | 9.85 | 10.70 | 9.16 | – |
| C=C1C[C@@H]2CC[C@@]34C[C@H]5O[C@H]6[C@@H](O3)[C@H]3O[C@H](CC[C@@H]3O[C@H]6[C@H]5O4)CC(=O)C[C@@H]3[C@@H](OC)[C@@H](C[C@H](O)CN(C)C(=O)C(C)(C)C)O[C@H]3C[C@H]3O[C@@H](CC[C@@H]1O2)C[C@@H](C)C3=C [D-12] | > 11.30 | > 11.30 | > 11.30 | > 11.30 | > 11.30 | > 11.30 | the best effects |
| C=C1C[C@@H]2CC[C@@]34C[C@H]5O[C@H]6[C@@H](O3)[C@H]3O[C@H](CC[C@@H]3O[C@H]6[C@H]5O4)CC(=O)C[C@@H]3[C@@H](OC)[C@@H](C[C@H](O)CNC(=O)[C@H]4C[C@@H](OC)C4)O[C@H]3C[C@H]3O[C@@H](CC[C@@H]1O2)C[C@@H](C)C3=C [D-21] | 9.92 | 10.30 | 9.41 | 9.62 | 10.40 | 9.62 | – |
| C=C1C[C@@H]2CC[C@@]34C[C@H]5O[C@H]6[C@@H](O3)[C@H]3O[C@H](CC[C@@H]3O[C@H]6[C@H]5O4)CC(=O)C[C@@H]3[C@@H](OC)[C@@H](C[C@H](O)CN(C)C(=O)OC(C)(C)C)O[C@H]3C[C@H]3O[C@@H](CC[C@@H]1O2)C[C@@H](C)C3=C [D-3] | > 11.30 | > 11.30 | > 11.30 | > 11.30 | > 11.30 | > 11.30 | the best effects |
| C=C1C[C@@H]2CC[C@@]34C[C@H]5O[C@H]6[C@@H](O3)[C@H]3O[C@H](CC[C@@H]3O[C@H]6[C@H]5O4)CC(=O)C[C@@H]3[C@@H](OC)[C@@H](C[C@H](O)CN(C)C(=O)c4ccccc4)O[C@H]3C[C@H]3O[C@@H](CC[C@@H]1O2)C[C@@H](C)C3=C [D-9] | > 11.30 | > 11.30 | > 11.30 | > 11.30 | > 11.30 | > 11.30 | the best effects |
| C=CCOC(=O)N(C)C[C@@H](O)C[C@H]1O[C@H]2C[C@H]3O[C@@H](CC[C@@H]4O[C@@H](CC[C@@]56C[C@H]7O[C@H]8[C@@H](O5)[C@H]5O[C@H](CC[C@@H]5O[C@H]8[C@H]7O6)CC(=O)C[C@@H]2[C@H]1OC)CC4=C)C[C@@H](C)C3=C [D-7] | > 11.30 | > 11.30 | 11.00 | 11.00 | > 11.30 | > 11.30 | the best effects |
| C=C1C[C@@H]2CC[C@@]34C[C@H]5O[C@H]6[C@@H](O3)[C@H]3O[C@H](CC[C@@H]3O[C@H]6[C@H]5O4)CC(=O)C[C@@H]3[C@@H](OC)[C@@H](C[C@H](O)CN(C)C(=O)C(C)C)O[C@H]3C[C@H]3O[C@@H](CC[C@@H]1O2)C[C@@H](C)C3=C [D-11] | 10.70 | 11.00 | 10.10 | 10.22 | 11.00 | 9.82 | – |
| C=C1C[C@@H]2CC[C@@]34C[C@H]5O[C@H]6[C@@H](O3)[C@H]3O[C@H](CC[C@@H]3O[C@H]6[C@H]5O4)CC(=O)C[C@@H]3[C@@H](OC)[C@@H](C[C@H](O)CNC(=O)OC(C)(C)C)O[C@H]3C[C@H]3O[C@@H](CC[C@@H]1O2)C[C@@H](C)C3=C [D-13] | > 11.30 | > 11.30 | > 11.30 | > 11.30 | > 11.30 | > 11.30 | the best effects |
| C=C1C[C@@H]2CC[C@@]34C[C@H]5O[C@H]6[C@@H](O3)[C@H]3O[C@H](CC[C@@H]3O[C@H]6[C@H]5O4)CC(=O)C[C@@H]3[C@@H](OC)[C@@H](C[C@H](O)CN(C)S(C)(=O)=O)O[C@H]3C[C@H]3O[C@@H](CC[C@@H]1O2)C[C@@H](C)C3=C [D-14] | 11.00 | 11.00 | 9.80 | 10.00 | 11.00 | 9.72 | – |
